# Reference: US7423054B2, “Therapeutic pyrazolo[3,4-b]pyridines and indazoles” (Warner Lambert Company LLC, priority 2004, dated 2008)
# Counter-ions that a name gives are not always drawn.
# Legend:
# [1] = molecular target: T1, human norepinephrine transporter (hNET) (Homo sapiens, UniProt P23975); experiment: hNET receptor binding ([125I]-RTI-55 displacement, membranes of transfected HEK-293 cells); settings: HEK-293 membranes, Ki from IC50 by Cheng-Prusoff, read-out: NET Ki
# T1 construct: expressed in transfected cells; host or cells: HEK-293 cells (membrane preparation)
# Method in brief: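 Membranes from HEK-293 cells expressing human NET were incubated 90 min at room temperature with 50 pM [125I]-RTI-55 and compound (10^−5 to 10^−12 M) in Krebs-HEPES buffer, pH 7.4. Bound radioligand was counted after filtration, with nonspecific binding defined by 10 μM desipramine. IC50 was converted to Ki by Cheng-Prusoff.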
# [2] = molecular target: T2, human serotonin transporter (hSERT) (Homo sapiens, UniProt P31645); experiment: hSERT receptor binding ([125I]-RTI-55 displacement, membranes of transfected HEK-293 cells); settings: HEK-293 membranes, Ki from IC50 by Cheng-Prusoff, read-out: SERT Ki
# T2 construct: expressed in transfected cells; host or cells: HEK-293 cells (membrane preparation)
# Method in brief: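 Membranes from HEK-293 cells expressing human SERT were incubated 90 min at room temperature in Krebs-HEPES (pH 7.4) with 50 pM [125I]-RTI-55 and compound (10^-12 to 10^-5 M), in duplicate. Nonspecific binding was defined with 10 μM citalopram. Ki from IC50 by Cheng-Prusoff.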
# [3] = system: capsaicin-induced mechanical allodynia; experiment: Rat model of capsaicin-induced mechanical allodynia (paw withdrawal threshold, Von Frey); format: in vivo; settings: male Sprague-Dawley rats, mean of eight animals; for inhibition in vivo at 10 mg/kg: Rattus norvegicus, po, 2 h, oral single dose 10 mg/kg, contralateral PWT at 2 hours after dose, read-out: % inhibition +/− SEM
# Protocol: In certain embodiments, the compounds of formula I may be assayed for their ability to alleviate capsaicin-induced mechanical allodynia in a rat (e.g., Sluka, K A, (2002) J of Neuroscience, 22(13): 5687-5693). For example, a rat model of capsaicin-induced mechanical allodynia) can be carried out as follows:
# On day 0, male Sprague-Dawley rats (˜150 g) in the dark cycle are placed in suspended wire-bottom cages and allowed to acclimate for 0.5 h in a darkened, quiet room. The day 0 paw withdrawal threshold (PWT) is determined on the left hind paw by Von Frey hair assessment using the Dixon up and down method. After assessment, the plantar muscle of the right hind paw is injected with 100 μl capsaicin (0.25% in 10% ethanol, 10% Tween 80, in sterile saline). On day 6 the PWT of the left hindpaw (contralateral from injection site) is determined for each animal. Animals from the day 6 prereads with PWT≦11.7 g are considered allodynic responders and are regrouped so that each cage had similar mean PWT values. On day 7, responders are dosed (e.g., orally, intraperitoneally, and subcutaneously, etc.) with 10 ml/kg vehicle (0.5% HPMC(hydroxy-propylmethylcellulose)/0.2% Tween™ 80), or vehicle plus compound. The contralateral PWT values are determined at 2 hours (or at about the time corresponding to the estimated Cmax) after the single dose, with the investigator blinded to the dosing scheme. Those of skill in the art can determine the appropriate time to determine the contralateral PWT value (e.g., 1 hour, 2 hours, etc.).
# For each animal, the day 6 PWT value is subtracted from the 2 hour PWT value to give a delta PWT value that represents the change in PWT due to the 2 hour drug treatment. In addition, the day 6 PWT is subtracted from the day 0 PWT to give the baseline window of allodynia present in each animal. To determine % inhibition of allodynia of each animal normalized for vehicle controls, the following formula is used: % Inhibition of Allodynia=100×(Delta PWT(drug)−mean Delta PWT(vehicle))/(Baseline−mean Delta PWT(vehicle)). Pharmaceutically Acceptable Salts and Solvates
# Compounds of the present invention may be assayed for their ability to alleviate capsaicin-induced mechanical allodynia in a rat model (e.g., Sluka (2002) J of Neuroscience, 22(13)5687-5693). For example, a rat model of capsaicin-induced mechanical allodynia was carried out as follows:
# On day 0, male Sprague-Dawley rats (˜150 g) in the dark cycle were placed in suspended wire-bottom cages and allowed to acclimate for 0.5 hour in a darkened, quiet room. The day 0 paw withdrawal threshold (PWT) was determined on the left hind paw by Von Frey hair assessment using the Dixon up and down method. After assessment, the plantar muscle of the right hind paw was injected with 100 μl capsaicin (0.25% (w/v) in 10% ethanol, 10% Tween 80, in sterile saline). On day 6 the PWT of the left hindpaw (contralateral from injection site) was determined for each animal. Animals from the day 6 prereads with PWT≦11.7 g were considered allodynic responders and were regrouped so that each cage had similar mean PWT values.
# On day 7, responders were dosed subcutaneously with 30 mg of the compound of Example 7/kg body weight, 10 mg of the compound of the compound of Example 48/kg body weight, or with vehicle alone. The vehicle was phosphate buffered saline containing 2% Cremophor®) EL (BASF).
# For the animals dosed with the compound of Example 7, the contralateral PWT values were determined at 2 hour after the single dose, with the investigator blinded to the dosing scheme.
# For each animal, the day 6 PWT value was subtracted from the 2 hour PWT value for the 10 mg/kg doses to give a delta PWT value that represents the change in PWT due to the […] drug treatment. In addition, the day 6 PWT was subtracted from the day 0 PWT to give the baseline window of allodynia present in each animal. […]
# T2 sequence (P31645 whole entry): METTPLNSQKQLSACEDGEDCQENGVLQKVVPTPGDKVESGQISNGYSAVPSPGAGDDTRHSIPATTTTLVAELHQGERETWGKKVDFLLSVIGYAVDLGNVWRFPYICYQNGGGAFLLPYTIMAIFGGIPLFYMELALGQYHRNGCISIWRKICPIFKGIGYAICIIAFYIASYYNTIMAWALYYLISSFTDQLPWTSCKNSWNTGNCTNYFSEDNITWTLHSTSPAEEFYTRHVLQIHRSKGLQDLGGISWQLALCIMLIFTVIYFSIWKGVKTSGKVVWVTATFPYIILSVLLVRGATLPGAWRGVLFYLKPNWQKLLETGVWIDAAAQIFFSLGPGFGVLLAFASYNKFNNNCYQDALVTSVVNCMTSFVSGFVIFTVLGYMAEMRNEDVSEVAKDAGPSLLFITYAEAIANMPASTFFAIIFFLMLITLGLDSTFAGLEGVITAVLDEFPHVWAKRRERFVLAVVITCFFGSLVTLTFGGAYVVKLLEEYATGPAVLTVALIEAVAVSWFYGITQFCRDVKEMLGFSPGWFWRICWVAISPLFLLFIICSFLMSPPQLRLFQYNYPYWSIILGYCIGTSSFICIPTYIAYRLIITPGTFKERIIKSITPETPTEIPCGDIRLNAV
# T1 sequence (P23975 whole entry): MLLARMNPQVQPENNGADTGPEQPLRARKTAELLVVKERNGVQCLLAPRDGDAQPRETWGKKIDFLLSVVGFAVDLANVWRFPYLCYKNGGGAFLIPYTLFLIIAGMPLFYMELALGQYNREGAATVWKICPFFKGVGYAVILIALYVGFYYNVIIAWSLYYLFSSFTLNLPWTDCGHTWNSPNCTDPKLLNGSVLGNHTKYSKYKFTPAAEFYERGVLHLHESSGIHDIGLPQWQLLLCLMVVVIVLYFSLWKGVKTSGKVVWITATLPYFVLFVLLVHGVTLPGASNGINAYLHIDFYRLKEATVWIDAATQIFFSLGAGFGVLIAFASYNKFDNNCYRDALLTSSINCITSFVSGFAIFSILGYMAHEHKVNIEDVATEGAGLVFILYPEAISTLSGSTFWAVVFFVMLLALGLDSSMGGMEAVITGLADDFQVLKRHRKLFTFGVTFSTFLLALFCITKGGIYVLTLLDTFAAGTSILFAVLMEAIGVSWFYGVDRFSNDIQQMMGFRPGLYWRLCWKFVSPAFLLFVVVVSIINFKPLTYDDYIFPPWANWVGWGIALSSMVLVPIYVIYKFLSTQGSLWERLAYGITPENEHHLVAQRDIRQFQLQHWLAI
Ki [1] [nM],Ki [2] [nM],Structure (SMILES),"% Inhibition of Allodynia +/− SEM ([3]; subcutaneous single dose 10 mg/kg, contralateral PWT at 1 hour after dose) [% +/− 14.8]",inhibition in vivo at 10 mg/kg [3] [%]
10.2,298,"Fc1ccc(-n2nc(OC[C@@H]3CNCCO3)c3cc(F)ccc32)c(F)c1.O=C(O)/C=C\C(=O)O [Example 48, (S)-(+)-1-(2,4-Difluorophenyl)-5-fluoro-3-(morpholin-2-ylmethoxy)-1H-indazole maleate]",74.9,–
11.9,53.7,"Fc1ccc2c(c1)c(OC1CCNCC1)nn2-c1ccccc1F [Example 51, 5-Fluoro-1-(2-fluoro-phenyl)-3-(piperidin-4-yloxy)-1H-indazole hydrochloride]",–,26
6.13,9.99,"Fc1ccc(-n2nc(OC3CCNCC3)c3cc(F)ccc32)c(F)c1 [Example 56, 1-(2,4-Difluoro-phenyl)-5-fluoro-3-(piperidin-4-yloxy)-1H-indazole hydrochloride]",–,11
4.63,102,"Fc1ccccc1-n1nc(OC2CCNCC2)c2c(F)cccc21 [Example 100, 4-Fluoro-1-(2-fluoro-phenyl)-3-(piperidin-4-yloxy)-1H-indazole hydrochloride]",–,8.7
